The target in one data set is Factor XIa (Homo sapiens (Human), UniProt P03951). Nature of the data set: Factor XIa enzyme inhibition assay (dose response, fluorogenic AMC substrate). The data set is classed as biochemical. As to conditions: read-out: hFXIa IC50. Summed up: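 Fluorogenic progress curves (30 min, 1-min reads, 30° C) were recorded for 0.25 nM FXIa cleaving 50 μM Glp-Pro-Arg-AMC in Hepes pH 7.4 buffer with NaCl and Tween 20. Compounds were serially two-fold diluted, and IC50 was fitted with a Hill equation.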
Chain of Factor XIa (P03951 388-625): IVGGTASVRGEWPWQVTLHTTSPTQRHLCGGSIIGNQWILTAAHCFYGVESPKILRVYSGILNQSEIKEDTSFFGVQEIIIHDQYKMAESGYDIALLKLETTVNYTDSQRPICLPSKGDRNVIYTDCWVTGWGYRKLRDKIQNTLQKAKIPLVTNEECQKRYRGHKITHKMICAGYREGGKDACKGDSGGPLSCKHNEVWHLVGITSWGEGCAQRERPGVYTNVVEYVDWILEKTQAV
Chain of Factor XIa (P03951 19-387 partner): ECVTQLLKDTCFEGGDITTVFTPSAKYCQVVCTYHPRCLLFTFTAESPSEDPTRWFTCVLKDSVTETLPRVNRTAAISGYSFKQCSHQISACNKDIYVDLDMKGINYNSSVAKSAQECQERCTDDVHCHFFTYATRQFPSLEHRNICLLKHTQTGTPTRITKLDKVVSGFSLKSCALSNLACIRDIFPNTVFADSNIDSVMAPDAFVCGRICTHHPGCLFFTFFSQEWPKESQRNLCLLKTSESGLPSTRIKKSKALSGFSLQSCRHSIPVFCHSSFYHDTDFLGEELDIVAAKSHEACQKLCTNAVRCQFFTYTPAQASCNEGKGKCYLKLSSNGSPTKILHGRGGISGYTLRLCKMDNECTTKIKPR

The next data set concerns the target Factor Xa (Homo sapiens (Human), UniProt P00742). Nature of the data set: Dose response assay for protease inhibitors: Factor Xa. As to conditions: selectivity, Factor Xa over Factor XIa. It is filed as biochemical. Summed up: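 Glp-Pro-Arg-AMC substrate (thrombin, trypsin) or Pro-Phe-Arg-AMC/Boc-Leu-Gly-Arg-AMC (Factor Xa), diluted to 100 μM, in 20 mM Hepes pH 7.4, 150 mM NaCl, 0.02% Tween 20; enzyme diluted to 0.5 nM before addition. Two-fold serial compound dilutions; kinetic reads at 30° C. Data yield IC50 and Kon.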

Data set [1] can be described thus: Caco-2 cell permeability assay. It is filed as in vitro ADME, human. As to conditions: human, 37° C.; for Papp A→B at 60 min, 10 μM: Caco-2, apical to basolateral; for Papp B→A at 40 min, 10 μM: Caco-2, basolateral to apical. The method in brief:
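Caco-2 monolayers (days 21-25 post-seeding) received 10 μM compound in HBSS-MES pH 6.5 or HBSS-HEPES pH 7.4 (1% DMSO) at 37 °C, for 60 min A-B or 40 min B-A. Donor and receiver samples were quantified by HPLC-MS/MS (SRM), and Papp and recovery were calculated.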
For orientation: Caco-2 cells form a polarised layer with tight junctions and transporters.

The nature of data set [2]: Plasma protein binding by equilibrium dialysis. It is filed as in vitro ADME. As to conditions: pH 7.4, pooled human plasma, 4 hours at 37° C., read-out: PPB (%). The method in brief:
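Pooled mixed-gender human plasma spiked with compound at 10 μM was dialysed against PBS pH 7.4 for 4 h at 37°C. Both compartments were quantified by HPLC-MS/MS, and % bound was calculated from plasma vs buffer peak areas.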

Read-outs that look alike come from different tables or passages of the source.

The IC50 is the concentration at which inhibition is half-maximal. A word on the Papp A→B: it is the apparent permeability from the apical to the basolateral side of a cell layer. Low readings indicate slow passage, high ones fast passage. As usually defined, the Papp B→A is how fast a substance crosses the layer from the basolateral side.

Chain of Factor Xa (P00742 235-488): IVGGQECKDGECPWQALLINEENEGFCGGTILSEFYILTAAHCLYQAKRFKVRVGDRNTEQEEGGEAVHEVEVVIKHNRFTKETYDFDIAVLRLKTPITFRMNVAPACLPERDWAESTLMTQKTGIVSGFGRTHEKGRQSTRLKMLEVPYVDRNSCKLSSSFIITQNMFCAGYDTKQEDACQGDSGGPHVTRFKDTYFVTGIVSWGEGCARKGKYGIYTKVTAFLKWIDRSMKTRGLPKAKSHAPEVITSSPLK
Chain of Factor Xa (P00742 41-179 partner): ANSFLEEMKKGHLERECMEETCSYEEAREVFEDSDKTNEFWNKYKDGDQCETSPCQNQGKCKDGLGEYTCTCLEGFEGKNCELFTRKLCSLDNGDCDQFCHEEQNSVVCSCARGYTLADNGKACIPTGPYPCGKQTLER

Regarding `CC[C@@H](NC(=O)N1C(=O)[C@H](Cc2ccnc(N)c2)[C@H]1C(=O)N(C)c1nccn1C)C1CCCCC1` [Compound 1-55, (2S,3R)-3-((2-aminopyridin-4-yl)methyl)-N2-(1-methyl-1H-imidazol-2-yl)-N1-((R)-1-cyclohexylpropyl)-N2-methyl-4-oxoazetidine-1,2-dicarboxamide], the IC50 at Factor XIa was below 10 nM. Also, the “Ratio: FXa/FXIa” value at Factor Xa is reported as “I (“I” indicates > 500)”. In data set [1], this molecule returned an apparent permeability from apical to basolateral (Papp A→B) at 60 min, 10 μM below 10 ×10⁻⁶ cm/s and a Papp B→A at 40 min, 10 μM of 31 to 50 ×10⁻⁶ cm/s. Besides, the fraction unbound at 4 h, 10 μM in data set [2] (both sexes) lay within 0.1 to 0.5.

Consider `CC(C)[C@@H](NC(=O)N1C(=O)[C@H](Cc2ccnc(N)c2)[C@H]1C(=O)N(C)c1ccn(C)n1)C1CCCCC1` [Compound 1-57, (2S,3R)-3-((2-aminopyridin-4-yl)methyl)-N2-(1-methyl-1H-pyrazol-3-yl)-N1-((R)-1-cyclohexyl-2-methylpropyl)-N2-methyl-4-oxoazetidine-1,2-dicarboxamide], for which, on Factor XIa, the 50% inhibitory concentration (IC50) was 10 to 100 nM. The “Ratio: FXa/FXIa” value at Factor Xa was “I (“I” indicates > 500)”. Moreover, in data set [1], the Papp A→B at 60 min, 10 μM fell in the range of 11 to 30 ×10⁻⁶ cm/s and the Papp B→A at 40 min, 10 μM lay within 11 to 30 ×10⁻⁶ cm/s. Further, in data set [2] (both sexes), the fraction unbound at 4 h, 10 μM is below 0.05.

For `CN(C(=O)[C@@H]1[C@@H](Cc2ccnc(N)c2)C(=O)N1C(=O)N[C@@H](C1CCCCC1)C1CC1)c1ccn(C)n1` [Compound 1-58, (2S,3R)-3-((2-aminopyridin-4-yl)methyl)-N2-(1-methyl-1H-pyrazol-3-yl)-N1-((R)-cyclohexyl-cyclopropylmethyl)-N2-methyl-4-oxoazetidine-1,2-dicarboxamide], the IC50 at Factor XIa was below 10 nM. Also, the “Ratio: FXa/FXIa” value at Factor Xa is given as “I (“I” indicates > 500)”. In addition, in data set [1], the Papp A→B at 60 min, 10 μM was 11 to 30 ×10⁻⁶ cm/s and the apparent permeability from basolateral to apical (Papp B→A) at 40 min, 10 μM was 11 to 30 ×10⁻⁶ cm/s. Besides, the fraction unbound at 4 h, 10 μM in data set [2] (both sexes) lay within 0.05 to 0.09.

For the molecule `CC[C@@H](NC(=O)N1C(=O)[C@H](Cc2cc(C)nc(NC)c2)[C@H]1C(=O)N(C)c1ccnn1C)C1CCCCC1` [Compound 1-62, (2S,3R)-3-((2-methylamino-6-methylpyridin-4-yl)methyl)-N2-(1-methyl-1H-pyrazol-5-yl)-N1-((R)-1-cyclohexylpropyl)-N2-methyl-4-oxoazetidine-1,2-dicarboxamide], at Factor XIa, the IC50 was in the range of 10 to 100 nM. For the same molecule, the “Ratio: FXa/FXIa” value at Factor Xa is recorded as “I (“I” indicates > 500)”. Besides, in data set [1], the apparent permeability from apical to basolateral (Papp A→B) at 60 min, 10 μM lay within 11 to 30 ×10⁻⁶ cm/s and the Papp B→A at 40 min, 10 μM lay within 11 to 30 ×10⁻⁶ cm/s. Besides, the fraction unbound at 4 h, 10 μM in data set [2] (both sexes) was 0.1 to 0.5.

`CC[C@@H](NC(=O)N1C(=O)[C@H](Cc2ccnc(N)c2)[C@H]1C(=O)N(C)c1ccnn1C)C1CCCCC1` [Compound 1-63, (2S,3R)-3-((2-aminopyridin-4-yl)methyl)-N2-(1-methyl-1H-pyrazol-5-yl)-N1-((R)-1-cyclohexylpropyl)-N2-methyl-4-oxoazetidine-1,2-dicarboxamide]: the concentration for half-maximal inhibition (IC50) at Factor XIa is below 10 nM. Also, the “Ratio: FXa/FXIa” value at Factor Xa was “I (“I” indicates > 500)”. Further, in data set [1], the Papp A→B at 60 min, 10 μM lay within 11 to 30 ×10⁻⁶ cm/s and the Papp B→A at 40 min, 10 μM was 31 to 50 ×10⁻⁶ cm/s. In addition, the fraction unbound at 4 h, 10 μM in data set [2] (both sexes) is 0.1 to 0.5.

Regarding `CC[C@@H](NC(=O)N1C(=O)[C@H](Cc2cc(C)nc(N)c2)[C@H]1C(=O)N(C)c1ccnn1C)C1CCCCC1` [Compound 1-67, (2S,3R)-3-((2-amino-6-methylpyridin-4-yl)methyl)-N2-(1-methyl-1H-pyrazol-5-yl)-N1-((R)-1-cyclohexylpropyl)-N2-methyl-4-oxoazetidine-1,2-dicarboxamide], the IC50 on Factor XIa was 10 to 100 nM. Moreover, on Factor Xa, the “Ratio: FXa/FXIa” value is “I (“I” indicates > 500)”. In data set [1], this molecule came in with an apparent permeability from apical to basolateral (Papp A→B) at 60 min, 10 μM of 11 to 30 ×10⁻⁶ cm/s and an apparent permeability from basolateral to apical (Papp B→A) at 40 min, 10 μM of 31 to 50 ×10⁻⁶ cm/s. Besides, the fraction unbound at 4 h, 10 μM in data set [2] (both sexes) was in the range of 0.1 to 0.5.

As for `CC[C@@H](NC(=O)N1C(=O)[C@H](Cc2ccnc(N)c2)[C@H]1C(=O)N(C)c1nccn1C)c1cccc(C)c1` [Compound 1-80, (2S,3R)-3-((2-aminopyridin-4-yl)methyl)-N2-(1-methyl-1H-imidazol-2-yl)-N1-((R)-1-(3-methylphenyl)propyl)-N2-methyl-4-oxoazetidine-1,2-dicarboxamide], at Factor XIa, the half-inhibitory concentration (IC50) is below 10 nM. For the same molecule, on Factor Xa, the “Ratio: FXa/FXIa” value is “I (“I” indicates > 500)”. In data set [1], the Papp A→B at 60 min, 10 μM is below 10 ×10⁻⁶ cm/s and the Papp B→A at 40 min, 10 μM lay within 31 to 50 ×10⁻⁶ cm/s. In data set [2] (both sexes), the fraction unbound at 4 h, 10 μM fell in the range of 0.1 to 0.5.

In the case of `CC[C@@H](NC(=O)N1C(=O)[C@H](Cc2ccnc(N)c2)[C@H]1C(=O)N(C)c1nccn1C)c1ccc(C)nc1` [Compound 1-81, (2S,3R)-3-((2-aminopyridin-4-yl)methyl)-N2-(1-methyl-1H-imidazol-2-yl)-N1-((R)-1-(6-methylpyridin-3-yl)propyl)-N2-methyl-4-oxoazetidine-1,2-dicarboxamide], on Factor XIa, the half-inhibitory concentration (IC50) lay within 10 to 100 nM. In addition, the “Ratio: FXa/FXIa” value at Factor Xa is reported as “I (“I” indicates > 500)”. Also, in data set [1], the Papp A→B at 60 min, 10 μM was below 10 ×10⁻⁶ cm/s and the apparent permeability from basolateral to apical (Papp B→A) at 40 min, 10 μM is below 10 ×10⁻⁶ cm/s. Further, the fraction unbound at 4 h, 10 μM in data set [2] (both sexes) was below 0.5.

`CC[C@@H](NC(=O)N1C(=O)[C@H](Cc2ccnc(N)c2)[C@H]1C(=O)N(C)c1nccn1C)c1ccccc1Cl` [Compound 1-83]: the IC50 on Factor XIa was in the range of 10 to 100 nM. Also, the “Ratio: FXa/FXIa” value on Factor Xa is recorded as “I (“I” indicates > 500)”. In data set [1], this molecule yielded an apical-to-basolateral permeability (Papp A→B) at 60 min, 10 μM below 10 ×10⁻⁶ cm/s and a Papp B→A at 40 min, 10 μM above 50 ×10⁻⁶ cm/s. Also, the fraction unbound at 4 h, 10 μM in data set [2] (both) was in the range of 0.05 to 0.09.

`CC[C@@H](NC(=O)N1C(=O)[C@H](Cc2ccnc(N)c2)[C@H]1C(=O)N(C)c1cnn(C)c1)c1ccccc1` [Compound 1-88, (2S,3R)-3-((2-aminopyridin-4-yl)methyl)-N2-(1-methyl-1H-pyrazol-4-yl)-N1-((R)-1-phenylpropyl)-N2-methyl-4-oxoazetidine-1,2-dicarboxamide]: the IC50 on Factor XIa is below 10 nM. The “Ratio: FXa/FXIa” value on Factor Xa is given as “H (“H” indicates 101-1000)”. In data set [1], this molecule came in with an apical-to-basolateral permeability (Papp A→B) at 60 min, 10 μM below 10 ×10⁻⁶ cm/s and a Papp B→A at 40 min, 10 μM of 11 to 30 ×10⁻⁶ cm/s. In addition, the fraction unbound at 4 h, 10 μM in data set [2] (both sexes) lay in the range of 0.1 to 0.5.

Regarding `CC[C@@H](NC(=O)N1C(=O)[C@H](Cc2cc(C)nc(N)c2)[C@H]1C(=O)N(C)c1ccn(C)n1)c1cccc(Cl)c1` [Compound 1-89, (2S,3R)-3-((2-amino-6-methylpyridin-4-yl)methyl)-N2-(1-methyl-1H-pyrazol-3-yl)-N1-((R)-1-(3-chlorophenyl)propyl)-N2-methyl-4-oxoazetidine-1,2-dicarboxamide], the IC50 at Factor XIa was below 10 nM. The “Ratio: FXa/FXIa” value on Factor Xa was “I (“I” indicates > 500)”. In data set [1], this molecule had an apical-to-basolateral permeability (Papp A→B) at 60 min, 10 μM below 10 ×10⁻⁶ cm/s and a Papp B→A at 40 min, 10 μM of 11 to 30 ×10⁻⁶ cm/s. Moreover, the fraction unbound at 4 h, 10 μM in data set [2] (both sexes) is 0.1 to 0.5.

With `CC[C@@H](NC(=O)N1C(=O)[C@H](Cc2ccnc(N)c2)[C@H]1C(=O)N(C)c1cn(C)cn1)c1ccccc1` [Compound 1-90, (2S,3R)-3-((2-aminopyridin-4-yl)methyl)-N2-(1-methyl-1H-imidazol-4-yl)-N1-((R)-1-phenylpropyl)-N2-methyl-4-oxoazetidine-1,2-dicarboxamide], on Factor XIa, the IC50 was below 10 nM. Further, the “Ratio: FXa/FXIa” value at Factor Xa is reported as “I (“I” indicates > 500)”. In data set [1], this molecule registered a Papp A→B at 60 min, 10 μM below 10 ×10⁻⁶ cm/s and a Papp B→A at 40 min, 10 μM of 11 to 30 ×10⁻⁶ cm/s. Moreover, in data set [2] (both sexes), the fraction unbound at 4 h, 10 μM was in the range of 0.1 to 0.5.
